Consider two compounds from patent US20120128732A1, “COMBINATIONS AND MODES OF ADMINISTRATION OF THERAPEUTIC AGENTS AND COMBINATION THERAPY” (priority 2008, published 2012).

Test [1] relates to second or third-line metastatic colon cancer. The conditions noted are these: perifosine in combination with capecitabine, patients with advanced; cited from earlier work.
The test system of test [2] is metastatic or advanced renal cell carcinoma. The conditions noted are these: progressing after prior therapy with a VEGF receptor inhibitor; cited from earlier work.
Test [3] deals with imatinib-resistant gastrointestinal stromal tumor. The conditions noted are these: addition of perifosine to imatinib, patients; cited from earlier work.
The subject of test [4] is MDA-MB-231 breast tumor xenografts. The experiment in a line: Survival signals in MDA-MB-231 breast tumor xenografts after Abraxane (Western blotting, immunohistochemistry). Type of test: in vivo, mice. The protocol: […] Tumor lysates were analyzed for VEGF expression and pro-survival signals (p42 & p44 kinase, p-NF-κB p50, p-Akt, bcl-2) using Western blotting. Expression of bcl-2 was further analyzed by immunohistochemistry.

Each structure is given as a SMILES string.

As for `CCCCCCCCCCCCCCCCCCOP(=O)([O-])OC1CC[N+](C)(C)CC1` [perifosine], the “median time to progression over capecitabine alone” value in test [1] was “more than doubled”. For the same compound, in test [2], the “clinical outcome in renal cell carcinoma” value is “clinical benefits”. In addition, the “activity in imatinib-refractory gastrointestinal stromal tumor” value in test [3] is given as “minimal activity”.

Turning to `CC(=O)O[C@H]1C(=O)[C@@]2(C)[C@H]([C@H](OC(=O)c3ccccc3)[C@]3(O)C[C@H](OC(=O)[C@H](O)[C@@H](NC(=O)c4ccccc4)c4ccccc4)C(C)=C1C3(C)C)[C@]1(OC(C)=O)CO[C@@H]1C[C@@H]2O` [paclitaxel], the “bcl-2 expression in tumors” value in test [4] (surviving MDA-MB-231 tumors, SCID mice, Abraxane 10 to 30 mg/kg IV qdx5, Western blotting and immunohistochemistry) is “Significant increases”. For the same compound, the “inflammatory cytokines in tumors” value in test [4] (tumors extracted immediately after therapy, Western blotting and immunohistochemistry) is given as “Significant increases”.
